Results from ChEMBL document CHEMBL1201862, “PubChem BioAssay data set” (2004).
Activity calls are given as the source filed them.

Tests used:
[1] = biological target: T1, Nucleotide-binding oligomerization domain-containing protein 1 (Homo sapiens, UniProt Q9Y239); test: blockers of NOD1 pathway activity – revised, SAR follow-up (AID 2333); format: functional
T1 sequence (Q9Y239 whole entry): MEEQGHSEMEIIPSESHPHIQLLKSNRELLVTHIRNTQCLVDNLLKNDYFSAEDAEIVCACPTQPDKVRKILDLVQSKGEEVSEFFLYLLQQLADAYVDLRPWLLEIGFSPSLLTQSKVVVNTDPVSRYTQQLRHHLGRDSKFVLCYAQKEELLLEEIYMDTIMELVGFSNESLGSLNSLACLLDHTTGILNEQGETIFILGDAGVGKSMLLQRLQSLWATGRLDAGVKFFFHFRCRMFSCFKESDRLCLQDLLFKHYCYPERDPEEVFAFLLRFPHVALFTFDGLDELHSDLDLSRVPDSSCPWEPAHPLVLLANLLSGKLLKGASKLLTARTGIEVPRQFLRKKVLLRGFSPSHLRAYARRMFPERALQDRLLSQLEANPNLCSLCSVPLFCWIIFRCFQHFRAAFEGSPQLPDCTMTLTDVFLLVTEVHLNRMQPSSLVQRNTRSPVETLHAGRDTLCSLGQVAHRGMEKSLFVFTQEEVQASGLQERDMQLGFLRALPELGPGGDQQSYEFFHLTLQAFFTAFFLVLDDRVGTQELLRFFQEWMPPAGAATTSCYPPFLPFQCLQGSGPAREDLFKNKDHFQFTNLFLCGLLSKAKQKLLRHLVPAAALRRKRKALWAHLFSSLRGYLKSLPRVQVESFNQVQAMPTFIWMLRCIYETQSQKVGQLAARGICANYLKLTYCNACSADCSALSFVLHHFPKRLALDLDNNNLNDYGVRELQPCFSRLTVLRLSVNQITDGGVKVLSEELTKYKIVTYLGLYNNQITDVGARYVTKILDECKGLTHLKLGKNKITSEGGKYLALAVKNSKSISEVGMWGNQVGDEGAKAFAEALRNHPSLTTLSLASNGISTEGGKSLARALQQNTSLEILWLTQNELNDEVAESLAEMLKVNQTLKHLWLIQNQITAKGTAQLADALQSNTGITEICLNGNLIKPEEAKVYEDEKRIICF

[2] = biological target: T2, Nucleotide-binding oligomerization domain-containing protein 2 (Homo sapiens, UniProt Q9HC29); test: PubChem AID 2334; format: functional
T2 sequence (Q9HC29 whole entry, the tested form may be a part): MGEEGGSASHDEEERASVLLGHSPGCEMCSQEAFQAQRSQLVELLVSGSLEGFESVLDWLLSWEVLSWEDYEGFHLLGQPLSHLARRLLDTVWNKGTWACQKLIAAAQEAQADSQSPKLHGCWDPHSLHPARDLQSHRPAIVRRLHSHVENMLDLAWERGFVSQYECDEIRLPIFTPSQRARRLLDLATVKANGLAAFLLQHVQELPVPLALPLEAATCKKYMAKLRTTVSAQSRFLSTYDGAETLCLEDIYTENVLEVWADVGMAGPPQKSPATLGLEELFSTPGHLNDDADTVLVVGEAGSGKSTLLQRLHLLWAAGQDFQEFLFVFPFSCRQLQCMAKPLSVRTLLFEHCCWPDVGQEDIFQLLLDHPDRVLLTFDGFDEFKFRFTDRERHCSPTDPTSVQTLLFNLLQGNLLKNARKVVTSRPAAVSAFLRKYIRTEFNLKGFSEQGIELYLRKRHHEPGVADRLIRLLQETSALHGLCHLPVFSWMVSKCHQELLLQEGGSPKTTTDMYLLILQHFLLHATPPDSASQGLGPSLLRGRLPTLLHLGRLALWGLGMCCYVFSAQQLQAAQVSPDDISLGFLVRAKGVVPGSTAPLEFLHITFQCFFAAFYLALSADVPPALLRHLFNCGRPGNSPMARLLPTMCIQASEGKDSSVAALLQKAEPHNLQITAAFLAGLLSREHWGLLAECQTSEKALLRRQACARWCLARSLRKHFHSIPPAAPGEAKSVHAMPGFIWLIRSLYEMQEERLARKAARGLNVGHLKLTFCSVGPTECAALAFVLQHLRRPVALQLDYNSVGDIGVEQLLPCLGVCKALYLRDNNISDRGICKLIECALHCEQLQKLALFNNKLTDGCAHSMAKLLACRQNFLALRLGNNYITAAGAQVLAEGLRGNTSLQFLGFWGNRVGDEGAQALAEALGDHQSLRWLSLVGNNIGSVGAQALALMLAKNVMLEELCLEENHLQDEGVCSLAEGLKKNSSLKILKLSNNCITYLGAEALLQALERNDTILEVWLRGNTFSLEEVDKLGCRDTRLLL

[3] = biological target: T3, Tumor necrosis factor (Homo sapiens, UniProt P01375); test: analog potency on TNFa NF-kB signaling – cell-based, revised, SAR follow-up (AID 2337); format: functional
T3 sequence (P01375 whole entry): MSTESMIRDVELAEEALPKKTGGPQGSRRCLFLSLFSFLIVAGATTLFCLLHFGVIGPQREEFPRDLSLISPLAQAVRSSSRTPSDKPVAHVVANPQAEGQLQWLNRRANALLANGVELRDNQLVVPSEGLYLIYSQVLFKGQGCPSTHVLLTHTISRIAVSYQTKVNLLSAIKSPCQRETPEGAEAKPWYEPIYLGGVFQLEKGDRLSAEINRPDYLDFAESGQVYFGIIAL

[4] = test system: HEK293; test: cells; details: Homo sapiens
[5] = test system: HEK293; test: SAR analysis of compounds that are cytotoxic to HEK293 - Set 2. [Related pubchem assays (depositor defined):AID1575, AID1578, AID1849, AID2001, AID2333, AID2334, AID2335, AID2337, AID2800]; format: functional, cell-based; details: Homo sapiens
[6] = biological target: T1, Nucleotide-binding oligomerization domain-containing protein 1; test: SAR analysis of NF-kappaB dependent luciferase using DAP as an inducer - Set 2. [Related pubchem assays (depositor defined):AID1566, AID1575, AID1578, AID1579, AID1849, AID1852, AID2264]; format: functional
[7] = biological target: T2, Nucleotide-binding oligomerization domain-containing protein 2; test: inhibition of MDP-driven NOD2 NF-kB reporter – cell-based, set 3, SAR follow-up (AID 2799); format: functional
[8] = biological target: T2, Nucleotide-binding oligomerization domain-containing protein 2; test: inhibition of NOD2 signaling – set 2, SAR follow-up (AID 2475); format: functional
[9] = biological target: T1, Nucleotide-binding oligomerization domain-containing protein 1; test: SAR analysis of compounds that inhibit NOD1 - Set 3. [Related pubchem assays (depositor defined):AID1566, AID1575, AID1578, AID1849, AID1852, AID2333, AID2335, AID2466]; format: functional
[10] = biological target: T4, Interleukin-8 (Homo sapiens, UniProt P10145); test: SAR analysis of Tumor necrosis factor alpha (TNF-alpha) induced IL-8 secretion in MCF-7/NOD1 cells - Set 2. [Related pubchem assays (depositor defined):AID1575, AID2250, AID2260]; format: functional, cell-based
T4 sequence (P10145 whole entry): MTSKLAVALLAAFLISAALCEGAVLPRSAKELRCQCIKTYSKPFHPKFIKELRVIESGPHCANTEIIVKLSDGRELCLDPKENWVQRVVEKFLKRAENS

[11] = biological target: T5, High affinity choline transporter 1 (Homo sapiens, UniProt Q9GZV3); test: human choline transporter blockers, potency – cell-based, 5-point CRC, membrane potential dye, dose response (AID 504840); format: functional
T5 sequence (Q9GZV3 whole entry): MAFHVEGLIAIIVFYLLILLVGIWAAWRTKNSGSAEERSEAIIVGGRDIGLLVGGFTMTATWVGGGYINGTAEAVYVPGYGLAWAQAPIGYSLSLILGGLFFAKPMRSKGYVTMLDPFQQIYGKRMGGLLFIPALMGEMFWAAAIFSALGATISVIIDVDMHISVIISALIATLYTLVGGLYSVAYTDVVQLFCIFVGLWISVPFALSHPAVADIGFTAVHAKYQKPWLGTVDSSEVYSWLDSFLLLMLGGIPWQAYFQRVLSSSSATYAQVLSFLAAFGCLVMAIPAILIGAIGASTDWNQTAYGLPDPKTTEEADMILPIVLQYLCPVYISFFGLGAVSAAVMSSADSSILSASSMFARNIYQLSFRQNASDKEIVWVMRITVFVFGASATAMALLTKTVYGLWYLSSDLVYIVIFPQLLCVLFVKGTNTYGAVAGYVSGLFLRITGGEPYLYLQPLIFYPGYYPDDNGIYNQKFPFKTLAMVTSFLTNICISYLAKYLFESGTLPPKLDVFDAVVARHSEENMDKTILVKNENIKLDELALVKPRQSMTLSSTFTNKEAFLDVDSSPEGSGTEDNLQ

[12] = biological target: T6, Fatty acid synthase (Homo sapiens, UniProt P49327); test: inhibition of human FAS-TE enzyme activity – biochemical, endpoint fluorescence intensity, uHTS hits, dose response (AID 624327); format: functional;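 note: fluorescence from hydrolysis of an O-methyl fluorescein acyl ester substrate by the enzyme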
T6 sequence (P49327 whole entry): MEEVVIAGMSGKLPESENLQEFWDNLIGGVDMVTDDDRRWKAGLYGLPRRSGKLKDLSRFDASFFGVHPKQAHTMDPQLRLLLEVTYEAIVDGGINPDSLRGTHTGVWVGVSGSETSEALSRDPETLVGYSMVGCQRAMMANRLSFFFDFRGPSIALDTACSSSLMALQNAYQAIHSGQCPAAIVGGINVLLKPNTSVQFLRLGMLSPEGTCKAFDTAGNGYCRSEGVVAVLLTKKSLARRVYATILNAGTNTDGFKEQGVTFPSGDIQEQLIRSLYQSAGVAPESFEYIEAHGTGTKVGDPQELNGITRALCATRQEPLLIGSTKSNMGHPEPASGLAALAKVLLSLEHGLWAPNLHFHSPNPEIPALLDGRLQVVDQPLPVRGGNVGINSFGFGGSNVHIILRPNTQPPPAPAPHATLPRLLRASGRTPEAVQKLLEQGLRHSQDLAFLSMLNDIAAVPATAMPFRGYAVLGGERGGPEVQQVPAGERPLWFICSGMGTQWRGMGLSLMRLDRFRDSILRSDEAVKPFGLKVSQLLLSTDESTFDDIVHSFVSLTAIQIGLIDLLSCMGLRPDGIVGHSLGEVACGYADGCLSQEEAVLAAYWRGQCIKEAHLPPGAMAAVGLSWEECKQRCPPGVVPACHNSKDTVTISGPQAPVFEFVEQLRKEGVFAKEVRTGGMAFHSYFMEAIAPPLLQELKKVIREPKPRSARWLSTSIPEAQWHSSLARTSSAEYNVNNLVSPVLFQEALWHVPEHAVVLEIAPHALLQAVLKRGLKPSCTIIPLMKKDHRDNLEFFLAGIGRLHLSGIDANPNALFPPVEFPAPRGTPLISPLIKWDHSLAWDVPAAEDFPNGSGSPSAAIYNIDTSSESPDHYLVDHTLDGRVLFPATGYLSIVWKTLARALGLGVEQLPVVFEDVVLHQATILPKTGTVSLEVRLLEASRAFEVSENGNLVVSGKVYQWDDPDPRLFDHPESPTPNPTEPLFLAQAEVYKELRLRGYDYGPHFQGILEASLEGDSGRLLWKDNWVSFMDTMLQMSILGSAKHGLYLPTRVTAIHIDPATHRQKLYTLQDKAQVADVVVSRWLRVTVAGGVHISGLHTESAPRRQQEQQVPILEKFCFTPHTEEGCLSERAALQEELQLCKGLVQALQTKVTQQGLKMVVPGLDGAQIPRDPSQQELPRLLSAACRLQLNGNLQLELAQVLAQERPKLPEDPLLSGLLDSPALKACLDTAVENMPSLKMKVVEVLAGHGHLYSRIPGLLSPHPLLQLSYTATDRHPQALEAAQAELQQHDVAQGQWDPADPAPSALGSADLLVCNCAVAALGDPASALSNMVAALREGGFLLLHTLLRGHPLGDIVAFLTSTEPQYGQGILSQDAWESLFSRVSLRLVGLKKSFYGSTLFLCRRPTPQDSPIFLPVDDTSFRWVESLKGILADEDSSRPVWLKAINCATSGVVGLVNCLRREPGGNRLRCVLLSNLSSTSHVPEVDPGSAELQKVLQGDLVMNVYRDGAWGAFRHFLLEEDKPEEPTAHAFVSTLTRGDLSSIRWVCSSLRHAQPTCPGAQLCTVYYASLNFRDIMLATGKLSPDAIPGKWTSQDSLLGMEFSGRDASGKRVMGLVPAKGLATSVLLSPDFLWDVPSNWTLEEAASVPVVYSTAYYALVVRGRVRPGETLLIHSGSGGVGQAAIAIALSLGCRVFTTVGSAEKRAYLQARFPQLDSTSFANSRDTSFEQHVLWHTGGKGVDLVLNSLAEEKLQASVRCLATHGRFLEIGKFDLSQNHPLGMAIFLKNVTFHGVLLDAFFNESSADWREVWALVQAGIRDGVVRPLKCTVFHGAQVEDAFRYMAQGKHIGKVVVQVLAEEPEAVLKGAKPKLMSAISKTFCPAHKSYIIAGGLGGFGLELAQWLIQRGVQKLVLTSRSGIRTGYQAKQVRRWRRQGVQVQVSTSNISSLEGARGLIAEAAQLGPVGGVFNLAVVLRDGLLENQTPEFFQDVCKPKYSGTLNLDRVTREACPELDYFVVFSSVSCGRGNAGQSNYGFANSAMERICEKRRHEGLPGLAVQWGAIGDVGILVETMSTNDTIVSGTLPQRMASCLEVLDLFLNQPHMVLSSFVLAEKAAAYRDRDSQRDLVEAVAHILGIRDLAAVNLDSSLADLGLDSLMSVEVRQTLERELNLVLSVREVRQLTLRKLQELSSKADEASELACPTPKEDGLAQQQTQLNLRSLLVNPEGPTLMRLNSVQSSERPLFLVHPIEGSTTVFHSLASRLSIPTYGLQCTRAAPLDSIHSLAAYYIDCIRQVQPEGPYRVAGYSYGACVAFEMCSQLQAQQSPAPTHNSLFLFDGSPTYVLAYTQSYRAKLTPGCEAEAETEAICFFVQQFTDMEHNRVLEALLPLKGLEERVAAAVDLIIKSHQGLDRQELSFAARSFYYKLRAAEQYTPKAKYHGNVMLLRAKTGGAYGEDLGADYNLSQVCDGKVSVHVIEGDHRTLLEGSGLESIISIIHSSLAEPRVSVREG

[13] = biological target: T6, Fatty acid synthase; test: inhibition of human FAS-TE enzyme activity – biochemical, kinetic fluorescence intensity, dose response (AID 624326); format: functional;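 note: rate of fluorescence rise from hydrolysis of a fluorogenic O-methyl fluorescein ester substrate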
[14] = biological target: T4, Interleukin-8; test: SAR analysis of GM-Tri-DAP induced IL-8 secretion in MCF-7/NOD1 cells - Set 2. [Related pubchem assays (depositor defined):AID1575, AID1578, AID2333]; format: functional, cell-based
[15] = biological target: T1, Nucleotide-binding oligomerization domain-containing protein 1; test: SAR analysis of compounds that inhibit NOD1 - Set 2. [Related pubchem assays (depositor defined):AID1566, AID1575, AID1578, AID1849, AID1852, AID2333, AID2335, AID2798]; format: functional
[16] = test system: HEK293; test: SAR analysis of compounds that are cytotoxic to HEK293 - Set 3. [Related pubchem assays (depositor defined):AID1575, AID1578, AID1848, AID1849, AID2001, AID2333, AID2334, AID2335, AID2337, AID2469]; format: functional, cell-based; details: Homo sapiens
[17] = biological target: T3, Tumor necrosis factor; test: analog potency on TNFa NF-kB signaling – cell-based, set 3, SAR follow-up (AID 2801); format: functional
[18] = biological target: Cytochrome P450 2C9 (Homo sapiens, UniProt P11712)
Chain of Cytochrome P450 2C9 (P11712 whole entry): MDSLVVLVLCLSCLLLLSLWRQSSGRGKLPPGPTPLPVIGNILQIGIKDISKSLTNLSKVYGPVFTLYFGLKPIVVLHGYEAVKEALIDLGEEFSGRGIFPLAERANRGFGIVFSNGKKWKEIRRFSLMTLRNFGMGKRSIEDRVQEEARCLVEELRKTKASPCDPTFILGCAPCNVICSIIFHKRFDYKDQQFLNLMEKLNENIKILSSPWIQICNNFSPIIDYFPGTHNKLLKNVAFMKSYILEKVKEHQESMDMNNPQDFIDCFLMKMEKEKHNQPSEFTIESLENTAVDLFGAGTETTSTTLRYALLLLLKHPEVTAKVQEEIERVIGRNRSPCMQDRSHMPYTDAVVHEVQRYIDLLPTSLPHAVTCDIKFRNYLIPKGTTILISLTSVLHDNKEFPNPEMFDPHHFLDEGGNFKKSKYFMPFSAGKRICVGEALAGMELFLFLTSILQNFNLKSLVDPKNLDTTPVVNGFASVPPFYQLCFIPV

[19] = biological target: Cytochrome P450 2D6 (Homo sapiens, UniProt P10635);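 note: CYP2D6 member of a cytochrome P450 panel assay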
Chain of Cytochrome P450 2D6 (P10635 whole entry): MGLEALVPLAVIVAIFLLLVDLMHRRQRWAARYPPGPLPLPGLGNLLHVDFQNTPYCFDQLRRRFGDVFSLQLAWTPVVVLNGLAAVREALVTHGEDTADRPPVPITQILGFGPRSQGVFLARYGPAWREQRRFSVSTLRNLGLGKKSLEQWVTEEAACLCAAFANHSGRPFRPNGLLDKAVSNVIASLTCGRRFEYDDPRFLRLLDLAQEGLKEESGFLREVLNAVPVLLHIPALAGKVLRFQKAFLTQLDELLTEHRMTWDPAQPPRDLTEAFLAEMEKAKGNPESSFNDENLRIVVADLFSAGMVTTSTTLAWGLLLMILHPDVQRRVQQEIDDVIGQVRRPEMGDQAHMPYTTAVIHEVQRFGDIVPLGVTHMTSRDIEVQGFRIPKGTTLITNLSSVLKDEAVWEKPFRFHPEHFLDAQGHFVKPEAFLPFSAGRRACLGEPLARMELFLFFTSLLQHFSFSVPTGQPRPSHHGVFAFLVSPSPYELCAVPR

[20] = biological target: Voltage-dependent T-type calcium channel subunit alpha-1H (Homo sapiens, UniProt O95180); test: inhibition of CACNA1H calcium flux – cell-based, SynthLib3 library, HEK293 Cav3.2, fluorescence (AID 493041); format: functional
[21] = biological target: G-protein coupled receptor 55 (Homo sapiens, UniProt Q9Y2T6); test: blockers of GPR55 signalling, imaged – imaging, image-based, counter-screen for GPR35 antagonist project, SAR follow-up (AID 2397); format: functional

In the case of `CC1(C)Cc2c(sc(NC(=O)c3ccccc3Cl)c2C(=O)O)CO1`, the IC50 [1] is reported as > 20 µM (inactive), the IC50 [2] is reported as > 20 µM (inactive) and the IC50 [3] is reported as > 20 µM (inactive). For the same compound, the IC50 [4] was > 20 µM (inactive).

For `CCCCn1c(CN2CCN(c3cccc(Cl)c3)CC2)nc2c1c(=O)n(C)c(=O)n2C`, the IC50 [5] was > 20 µM (inactive), the IC50 [6] was 8.7 µM (active) and the IC50 [7] was 1.41 µM (active). For the same compound, the IC50 [8] was 2.21 µM (active), the IC50 [9] was 1.8 µM (active) and the IC50 [10] was > 25 µM (inactive). For the same compound, the IC50 [11] was 15.1 µM (active), the IC50 [12] was 5.07 µM (active) and the IC50 [13] was 5.74 µM (active). The IC50 [14] was > 25 µM (inactive), the IC50 [15] was 2.18 µM (active) and the IC50 [16] was > 20 µM (inactive). The IC50 [17] was 3.35 µM (active).

For `CCOC(=O)COc1c(C=O)cc(Br)cc1OC`, the AC50 [18] was “inconclusive” and the AC50 [19] was “inconclusive”.

For `CC(C)(C)Cc1nnc(NC(=O)COc2ccc(Cl)cc2Cl)o1`, the EC50 [20] was 0.81 µM (active).

For `c1ccc(-c2n[n+](-c3ccccc3)c(-c3ccccc3)s2)cc1`, the IC50 [21] was > 32 µM (inactive).
